Data: ChEMBL document CHEMBL3507680, “University of Dundee, Gates Library screen for HepG2 cell viability”

Assay: Human HepG2 cell viability assay in 384 well format
Assay type: toxicity, cell-based
Design: dose 125 nL, time 70.5 hour; concentration not given beside the values
Settings: HepG2 cells, read-out: Inhibition

SMILES | cytotoxicity at 70.5 h
c1coc(-c2noc(CN3CCc4c(ncn4C4CC4)C3)n2)c1 | 1.12%
CC(C)CC(CCO)CNC(=O)N1CC(C)(C)C1(C)C (centres undefined) | -7.83%
Cc1ccc(OCCN(C)Cc2ccc(S(=O)(=O)N(C)C)o2)cc1 | -5.02%
Cc1ccc(-c2nnc(C(C)N3CCc4cncnc4C3)o2)cc1 (centres undefined) | 1.38%
CC(O)CN1CCC(CN(C)C(=O)NC2CC2)CC1 (centres undefined) | -1.96%
NC(=O)CN(Cc1ccc(Br)cc1)C(=O)c1cccnc1 | -3.52%
O=C(Nc1ccccc1Cn1cccn1)N1CCCC(N2CCCC2)C1 (centres undefined) | 16.1%
COC(=O)C(C)(C)S(=O)(=O)c1ccc(Br)cc1 | -1.38%
Cc1ccc(N(C)C2CCN(C(=O)c3n[nH]c4c3CCC4)CC2)nn1 | -3.25%
CC(C)(C(=O)O)S(=O)(=O)c1ccc(Br)cc1 | 0.0653%
O=C1C(Sc2nnnn2C2CC2)CCN1c1ccccc1Cl (centres undefined) | -6.47%
Cc1nc(O)ccc1C(=O)NCc1ncccc1F | -2.33%
N#CCCN(CC(F)(F)F)C(=O)c1cc(-n2cccn2)ccn1 | -3.35%
Cc1cc(CNC2(c3ccccc3F)CC2)no1 | -4.02%
Cc1nc(CN(C)c2cc(N3CCCC3CO)ncn2)cs1 (centres undefined) | -3.26%
Cc1cnn(CCNCc2c(C)nn(-c3ccccc3)c2C)c1 | 2.45%
N#Cc1ccnc(N2CCN(C(=O)c3ccc4c(c3)CCO4)CC2)c1 | -3.35%
O=S(=O)(NCCSc1nccn1C1CC1)c1ccccc1 | -3.08%
COCCN(CCOC)C(=O)c1cc(F)cc2[nH]cnc12 | -4.53%
CCN(CC)C(=O)c1cccc(Cn2nc(C)cc2C)c1 | -8.82%

SMILES | cytotoxicity at 70.5 h
Cc1nn(CN(CC2CCOC2)C2CC2)c(=O)c2ccccc12 (centres undefined) | -3.01%
N#Cc1c(Cl)nsc1N1CCN(CC2CCCCC2)CC1 | 0.793%
COC(=O)NC1(C(=O)Nc2ccc(-c3cc[nH]n3)cc2)CCCC1 | -0.955%
COC(=O)NC1(C(=O)Nc2ccc(-c3ncc[nH]3)cc2)CCCC1 | 1.15%
O=C(O)CC1CN(S(=O)(=O)c2cccc(F)c2)c2ccccc21 (centres undefined) | 22.7%
Cc1cc(NS(=O)(=O)CC2CCCCO2)ccc1F (centres undefined) | -2.48%
N#Cc1cc(NS(=O)(=O)CC2CCCCO2)ccc1F (centres undefined) | -0.517%
COCCCOC1CN(C(=O)c2[nH]nc3c2CCCC3)C1 | 4%
CC(C)(C)OC(=O)N1CCCN1C(=O)c1cccc2cc[nH]c12 | 3.87%
Cc1ccc(-c2ncc(CNc3cnccc3CO)s2)o1 | -2.69%
Cc1ncc(CNc2cnccc2CO)s1 | 6.67%
CSC1(CNC(=O)NC(C)c2ccc(F)cc2)CCOCC1 (centres undefined) | 6.41%
COCCN(CCOC)C(=O)c1ccc(Cn2nc(C)cc2C)cc1 | 7.43%
Cc1cc(CN(CCCO)c2ccccc2)on1 | -0.833%
Cc1cc(CN(CCO)c2ccccc2)on1 | 0.618%
Cc1csc(CNc2cnn(C(C)C)c2)n1 | 3.67%
Cc1csc(CNc2cnn(CC(F)(F)F)c2)n1 | -2.55%
COc1cccc(C(O)C(=O)N(C)CCc2ccccn2)c1 (centres undefined) | -0.0669%
CC(=O)N(Cc1noc(C)n1)C1CCN(CC2CCCC2)C1 (centres undefined) | 23.3%
O=C1CCCN1c1cccc(CNCc2nc(C3CC3)no2)c1 | 8.67%

SMILES | cytotoxicity at 70.5 h
CN(Cc1ccncc1)C(CO)c1cccc(Br)c1 (centres undefined) | -21%
c1ccc(Cn2cccn2)c(CNCc2cnc(N3CCCC3)nc2)c1 | -13.6%
CNC(=O)NC(=O)CCSCc1cc(F)cc2cccnc12 | -27.1%
O=C(Nc1ccc(=O)n(Cc2ccccc2Cl)c1)C1CC1 | -23.5%
Cc1cc(C)cc(C(=O)N2CCCN(CC(N)=O)CC2)c1 | 37.8%
Cc1nc(NC(=O)N[C@H](CO)c2ccccc2)sc1C | -15.6%
CN(C(=O)C1CCC1)C1CCN(c2ccccc2Cl)C1=O (centres undefined) | -26.5%
c1cnn(CCNCc2cnc(N3CCCC3)nc2)c1 | -9.32%
Cc1nccn1CCCNc1ncccc1C#N | -13.8%
Cn1cc(NC(=O)Nc2cccc3cccnc23)ccc1=O | 53.3%
Brc1cnc(NCc2ccccc2N2CCOCC2)nc1 | -1.21%
Cc1ccnc(NCc2ccccc2N2CCOCC2)n1 | -16.7%
COc1c(C)cnc(CSc2nnc(C)s2)c1C | -5.43%
CC(=O)Nc1cc(C(=O)N2CCOCC2c2ccc(C)o2)ccc1F (centres undefined) | -6.36%
Cc1nn(C)c(Cl)c1C1CCCN1c1ncnc2sccc12 (centres undefined) | -1.91%
Cc1cnn(CCNCc2csc(C)n2)c1 | -5.62%
Cc1nn(C)c(C)c1C1COCCN1c1ncnc2sccc12 (centres undefined) | -11.4%
COc1ncccc1NC(=O)N1CCC(CN2CCOCC2)CC1 | -6.27%
O=C(NCc1ccccc1CN1CCC(O)CC1)Nc1ccncc1 | 9.61%
